Reference: ChEMBL document CHEMBL4219249, “Discovery of d-amino acid oxidase inhibitors based on virtual screening against the lid-open enzyme conformation” (Bioorg Med Chem Lett, 2018)

Tests used:
D-amino-acid oxidase [1] = target: T1, D-amino-acid oxidase (Homo sapiens, UniProt P14920); assay: Inhibition of human DAAO at 20 uM using D-kynurenine as substrate relative to control
Target sequence in this assay (P14920 whole entry, looked up): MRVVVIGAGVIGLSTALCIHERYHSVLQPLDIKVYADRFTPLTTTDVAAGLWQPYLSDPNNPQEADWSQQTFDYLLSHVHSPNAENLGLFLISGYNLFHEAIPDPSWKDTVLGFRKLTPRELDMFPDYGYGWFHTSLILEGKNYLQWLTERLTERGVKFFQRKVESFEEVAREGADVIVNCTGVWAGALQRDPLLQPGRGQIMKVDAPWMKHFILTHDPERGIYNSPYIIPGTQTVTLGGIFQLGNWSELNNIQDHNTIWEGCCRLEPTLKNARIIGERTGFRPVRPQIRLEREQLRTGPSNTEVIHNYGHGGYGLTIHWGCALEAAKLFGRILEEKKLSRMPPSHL

D-amino-acid oxidase [2] = target: T1, D-amino-acid oxidase; assay: Inhibition of human DAAO using D-kynurenine as substrate
Target sequence in this assay (P14920 whole entry): as the sequence (P14920 whole entry, looked up) above

SMILES: O=C(O)CNC(=O)c1cc(NC(=O)c2ccc([N+](=O)[O-])[nH]2)c[nH]1
- inhibition (D-amino-acid oxidase [1]): 33%

SMILES: O=C(O)CNC(=O)c1cc(NC(=O)c2ccccn2)c[nH]1
- inhibition (D-amino-acid oxidase [1]): 18%

SMILES: Cc1[nH]c(C(=O)Nc2c[nH]c(C(=O)NCC(=O)O)c2)c(Cl)c1Cl
- IC50 (D-amino-acid oxidase [2]): 8.8 µM
- inhibition (D-amino-acid oxidase [1]): 100%

SMILES: CC(=O)Nc1c[nH]c(C(=O)NCC(=O)O)c1
- inhibition (D-amino-acid oxidase [1]): 39%

SMILES: CN(C(=O)c1cc(Br)c(Br)[nH]1)c1c[nH]c(C(=O)NCC(=O)O)c1
- inhibition (D-amino-acid oxidase [1]): 0%

SMILES: O=C(O)CNC(=O)c1cc(NC(=O)c2cccnc2)c[nH]1
- inhibition (D-amino-acid oxidase [1]): 45%

SMILES: O=C(O)CNC(=O)c1cc(NC(=O)c2cc(Br)c[nH]2)c[nH]1
- IC50 (D-amino-acid oxidase [2]): 6.7 µM
- inhibition (D-amino-acid oxidase [1]): 100%

SMILES: O=C(O)CNC(=O)c1cc(NC(=O)c2cc(Cl)c(Cl)[nH]2)c[nH]1
- IC50 (D-amino-acid oxidase [2]): 5.2 µM
- inhibition (D-amino-acid oxidase [1]): 100%

SMILES: Cn1cc(NC(=O)c2cc(Br)c(Br)[nH]2)cc1C(=O)NCC(=O)O
- inhibition (D-amino-acid oxidase [1]): 32%

SMILES: CN(CC(=O)O)C(=O)c1cc(NC(=O)c2cc(Br)c(Br)[nH]2)c[nH]1
- IC50 (D-amino-acid oxidase [2]): 0.49 µM
- inhibition (D-amino-acid oxidase [1]): 100%

SMILES: CN(CC(=O)O)C(=O)c1cc(N(C)C(=O)c2cc(Br)c(Br)[nH]2)c[nH]1
- inhibition (D-amino-acid oxidase [1]): 0%

SMILES: O=C(O)CNC(=O)c1cc(NC(=O)c2cc3ccccc3[nH]2)c[nH]1
- inhibition (D-amino-acid oxidase [1]): 8%

SMILES: O=C(O)CNC(=O)c1cc([N+](=O)[O-])c[nH]1
- inhibition (D-amino-acid oxidase [1]): 35%

SMILES: O=C(O)CNC(=O)c1cc(NC(=O)c2cc(Br)c(Br)[nH]2)c[nH]1
- IC50 (D-amino-acid oxidase [2]): 0.39 µM
- inhibition (D-amino-acid oxidase [1]): 100%
